ChEMBL document CHEMBL1127849, “Benzisoxazole- and benzisothiazole-3-carboxamides as potential atypical antipsychotic agents” (J Med Chem, 1994)

Experiments:
[1] = target: T1, Adrenergic receptor alpha-1 (Rattus norvegicus, UniProt P15823+P23944+P43140); test: Its affinity towards alpha-1 receptor using [3H]WB-4101 as radioligand in whole brain minus cerebellum; type: tissue-based
T1 sequence (P15823 whole entry): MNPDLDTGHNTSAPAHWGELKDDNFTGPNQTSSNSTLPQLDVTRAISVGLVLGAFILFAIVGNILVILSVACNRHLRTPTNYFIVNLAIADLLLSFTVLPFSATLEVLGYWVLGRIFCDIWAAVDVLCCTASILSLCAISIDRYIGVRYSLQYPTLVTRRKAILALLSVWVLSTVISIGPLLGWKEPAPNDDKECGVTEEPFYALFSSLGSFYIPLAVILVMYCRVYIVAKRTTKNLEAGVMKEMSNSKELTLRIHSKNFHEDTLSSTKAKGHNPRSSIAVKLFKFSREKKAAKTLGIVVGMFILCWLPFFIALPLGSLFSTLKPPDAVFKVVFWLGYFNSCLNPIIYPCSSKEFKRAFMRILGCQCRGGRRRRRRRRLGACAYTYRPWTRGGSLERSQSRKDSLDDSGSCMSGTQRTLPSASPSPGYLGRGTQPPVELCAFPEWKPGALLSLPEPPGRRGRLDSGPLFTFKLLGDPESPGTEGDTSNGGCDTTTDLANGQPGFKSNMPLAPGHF
T1 sequence (P23944 whole entry): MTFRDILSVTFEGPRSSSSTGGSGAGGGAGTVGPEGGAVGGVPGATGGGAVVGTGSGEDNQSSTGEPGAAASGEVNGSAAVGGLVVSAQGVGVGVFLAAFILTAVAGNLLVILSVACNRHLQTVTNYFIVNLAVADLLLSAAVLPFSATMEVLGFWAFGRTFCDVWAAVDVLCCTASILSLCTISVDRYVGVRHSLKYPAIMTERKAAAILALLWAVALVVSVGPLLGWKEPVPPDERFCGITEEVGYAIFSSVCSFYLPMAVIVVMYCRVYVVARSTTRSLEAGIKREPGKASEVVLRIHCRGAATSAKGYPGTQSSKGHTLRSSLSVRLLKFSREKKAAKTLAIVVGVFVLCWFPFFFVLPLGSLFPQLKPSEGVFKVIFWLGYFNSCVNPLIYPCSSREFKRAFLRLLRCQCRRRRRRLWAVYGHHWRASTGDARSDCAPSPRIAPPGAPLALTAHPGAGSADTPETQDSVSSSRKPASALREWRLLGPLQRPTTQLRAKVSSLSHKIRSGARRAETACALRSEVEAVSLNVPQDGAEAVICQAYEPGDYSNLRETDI
T1 sequence (P43140 whole entry): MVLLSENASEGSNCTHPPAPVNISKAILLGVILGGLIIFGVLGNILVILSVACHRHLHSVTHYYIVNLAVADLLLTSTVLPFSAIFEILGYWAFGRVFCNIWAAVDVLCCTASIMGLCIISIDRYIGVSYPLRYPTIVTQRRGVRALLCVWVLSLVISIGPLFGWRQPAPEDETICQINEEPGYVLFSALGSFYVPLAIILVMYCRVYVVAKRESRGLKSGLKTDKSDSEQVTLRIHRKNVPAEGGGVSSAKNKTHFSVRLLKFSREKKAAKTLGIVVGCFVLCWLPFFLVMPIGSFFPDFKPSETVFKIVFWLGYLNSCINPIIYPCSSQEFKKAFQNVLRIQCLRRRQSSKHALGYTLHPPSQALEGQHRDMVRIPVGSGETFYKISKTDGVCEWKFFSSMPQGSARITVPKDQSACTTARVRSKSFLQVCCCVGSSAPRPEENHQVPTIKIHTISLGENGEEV

[2] = target: 5-hydroxytryptamine receptor 2A (Rattus norvegicus, UniProt P14842); test: In vitro affinity towards 5-hydroxytryptamine 2A receptor using [3H]spiroperidol as radioligand in cortex
Mus musculus = test: In vivo effective dose for inhibition of apomorphine-induced climbing in mice after intraperitoneal administration at a dose 20 mg/kg; type: functional; settings: ip
[3] = target: T2, 5-hydroxytryptamine receptor 1A (Rattus norvegicus, UniProt P19327); test: In vitro affinity towards 5-hydroxytryptamine 1A receptor using [3H]8-OH-DPAT as radioligand in hippocampus; type: tissue-based
T2 sequence (P19327 whole entry): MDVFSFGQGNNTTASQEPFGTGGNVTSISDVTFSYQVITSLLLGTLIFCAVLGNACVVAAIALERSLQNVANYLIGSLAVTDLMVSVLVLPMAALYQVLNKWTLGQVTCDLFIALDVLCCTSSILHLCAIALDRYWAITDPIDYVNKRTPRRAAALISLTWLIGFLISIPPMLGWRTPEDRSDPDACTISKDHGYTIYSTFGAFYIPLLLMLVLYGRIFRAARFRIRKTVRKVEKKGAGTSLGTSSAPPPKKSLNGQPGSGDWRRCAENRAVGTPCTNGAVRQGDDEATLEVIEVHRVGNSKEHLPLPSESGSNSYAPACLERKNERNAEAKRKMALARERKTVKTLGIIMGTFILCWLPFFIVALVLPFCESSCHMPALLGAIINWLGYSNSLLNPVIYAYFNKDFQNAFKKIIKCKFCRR

Rattus norvegicus [4] = test: Compound was evaluated in vivo for its antipsychotic activity for inhibition of apomorphine-induced stereotypy in rat; type: functional
Rattus norvegicus [5] = test: Compound was evaluated in vivo for its antipsychotic activity for inhibition of apomorphine-induced stereotypy in rat after intraperitoneal administration of a dose of 40 mg/kg; type: functional; settings: ip
Rattus norvegicus [6] = test: Compound was evaluated in vivo for its antipsychotic activity for inhibition of apomorphine-induced stereotypy in rat after intraperitoneal administration of a dose of 10 mg/kg; type: functional; settings: ip
Rattus norvegicus [7] = test: Compound was evaluated in vivo for its antipsychotic activity for inhibition of apomorphine-induced stereotypy in rat after intraperitoneal administration of a dose of 40 mg/kg value represented as percent inhibition; type: functional; settings: ip
Rattus norvegicus [8] = test: Compound was evaluated in vivo for its antipsychotic activity for inhibition of apomorphine-induced stereotypy in rat after intraperitoneal administration of a dose of 13 mg/kg; type: functional; settings: ip

Chain of 5-hydroxytryptamine receptor 2A (P14842 whole entry): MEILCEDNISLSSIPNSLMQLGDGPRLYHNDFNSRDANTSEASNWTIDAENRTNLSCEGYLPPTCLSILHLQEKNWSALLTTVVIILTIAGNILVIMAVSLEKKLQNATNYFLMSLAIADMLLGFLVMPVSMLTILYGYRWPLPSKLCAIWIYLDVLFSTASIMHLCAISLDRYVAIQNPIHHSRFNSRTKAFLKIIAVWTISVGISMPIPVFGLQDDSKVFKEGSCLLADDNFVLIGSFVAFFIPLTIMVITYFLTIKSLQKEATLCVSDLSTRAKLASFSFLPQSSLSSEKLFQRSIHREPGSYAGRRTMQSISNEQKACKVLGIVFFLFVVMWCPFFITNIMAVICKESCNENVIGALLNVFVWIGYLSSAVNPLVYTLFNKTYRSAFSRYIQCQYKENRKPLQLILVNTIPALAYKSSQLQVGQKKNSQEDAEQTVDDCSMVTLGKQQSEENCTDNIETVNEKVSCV

SMILES | IC50 [1] | IC50 [2] | ED50 (Mus musculus) | IC50 [3] | ED50 (Rattus norvegicus [4]) | inhibition in vivo at 40 mg/kg (Rattus norvegicus [5]) | inhibition in vivo at 10 mg/kg (Rattus norvegicus [6]) | inhibition in vivo at 40 mg/kg (Rattus norvegicus [7]) | inhibition in vivo at 13 mg/kg (Rattus norvegicus [8])
CN1CCN(CCNC(=O)c2nsc3ccccc23)CC1 | > 10000 nM | > 10000 nM | > 20 mg/kg | > 10000 nM |  |  |  |  | 
O=C(NCCN1CCC(c2noc3cc(Cl)ccc23)CC1)c1nsc2ccccc12 | 239 nM | 215 nM | > 20 mg/kg | 3450 nM |  |  |  |  | 
O=C(NCCN1CCN(Cc2ccccc2)CC1)c1nsc2ccccc12 | 2570 nM |  | > 20 mg/kg | 1880 nM |  |  |  |  | 
O=C(NCCN1CCC(C(=O)c2ccc(F)cc2)CC1)c1nsc2ccccc12 | 15.7 nM | 17 nM | 3.64 mg/kg | 920 nM | 25.7 mg/kg |  |  |  | 
COc1ccccc1N1CCN(CCCCN(C)C(=O)c2nsc3ccccc23)CC1 | 3.3 nM |  | 9.61 mg/kg | 4 nM |  | 100% |  |  | 
CN(CCCCN1CCC(c2noc3cc(F)ccc23)CC1)C(=O)c1nsc2ccccc12 | 174 nM | 13 nM |  | 160 nM |  |  | 67% |  | 
COc1ccccc1N1CCN(CCCCNC(=O)c2nsc3ccccc23)CC1 | 6.4 nM | 724 nM | 7.24 mg/kg | 2.3 nM |  |  |  | 83% | 
COc1ccccc1N1CCN(CCNC(=O)c2nsc3ccccc23)CC1 | 4.1 nM | 550 nM |  | 3.9 nM | 51.8 mg/kg |  |  |  | 
O=C(NCCN1CCN(c2cccc(Cl)c2)CC1)c1nsc2ccccc12 | 81.5 nM | 726 nM | > 20 mg/kg | 51.6 nM |  |  |  |  | 
O=C(NCCN1CCC(n2c(O)nc3ccccc32)CC1)c1nsc2ccccc12 | 39.8 nM | 641 nM | > 20 mg/kg |  |  |  |  |  | 
O=C(NCCN1CCN(c2nsc3ccccc23)CC1)c1nsc2ccccc12 | 19 nM | 475 nM | > 20 mg/kg | 98 nM |  |  |  |  | 
CN(CCCCN1CCC(C(=O)c2ccc(F)cc2)CC1)C(=O)c1nsc2ccccc12 | 3.2 nM | 30.2 nM | 8.2 mg/kg | 339 nM |  | 60% |  |  | 
O=C(NCCN1CCN(c2csc3cc(F)ccc23)CC1)c1noc2ccccc12 | > 10000 nM | 309 nM |  | 1040 nM |  | 17% |  |  | 
CN(CCCN1CCC(C(=O)c2ccc(F)cc2)CC1)C(=O)c1noc2ccccc12 | 43 nM | 123 nM | > 20 mg/kg | 6650 nM |  |  |  |  | 
CC(C)N(CCN1CCC(c2noc3cc(F)ccc23)CC1)C(=O)c1noc2ccccc12 | 5.5 nM | 29.7 nM | 1.3 mg/kg |  |  |  |  |  | 
COc1ccccc1N1CCN(CCNC(=O)c2noc3ccccc23)CC1 | 2.1 nM | 391 nM | > 20 mg/kg | 21 nM |  |  |  |  | 
COc1ccccc1N1CCN(CCCNC(=O)c2nsc3ccccc23)CC1 | 18.3 nM | 3110 nM | 13 mg/kg | 84.7 nM |  | 17% |  |  | 
CN(CCCN1CCC(C(=O)c2ccc(F)cc2)CC1)C(=O)c1nsc2ccccc12 | 6.11 nM | 68 nM | 7.7 mg/kg | 4670 nM |  |  |  |  | 
COc1ccccc1N1CCN(CCCN(C)C(=O)c2nsc3ccccc23)CC1 | 10.7 nM | 1650 nM | > 20 mg/kg | 149 nM |  |  |  |  | 
CN(CCN1CCC(c2noc3cc(F)ccc23)CC1)C(=O)c1noc2ccccc12 | 104 nM | 17.6 nM | 1.3 mg/kg | 440 nM |  |  |  |  | 33%
CN(CCCCN1CCN(c2csc3cc(F)ccc23)CC1)C(=O)c1noc2ccccc12 | 3.2 nM | 188 nM |  | 128 nM | 52 mg/kg |  |  |  | 
CN(CCCCN1CCN(c2csc3cc(F)ccc23)CC1)C(=O)c1nsc2ccccc12 | 6.3 nM | 232 nM |  | 366 nM | 33 mg/kg |  |  |  | 
O=C(NCCCN1CCC(c2noc3cc(Cl)ccc23)CC1)c1nsc2ccccc12 | 93.8 nM | 115 nM | > 20 mg/kg | 3720 nM |  |  |  |  | 
CN(CCN1CCC(C(=O)c2ccc(F)cc2)CC1)C(=O)c1nsc2ccccc12 | 75.3 nM | 51 nM | 8 mg/kg | 2500 nM |  |  |  |  | 
CN(CCN1CCC(C(=O)c2ccc(F)cc2)CC1)C(=O)c1noc2ccccc12 | 108.2 nM | 27 nM | 13.4 mg/kg | 1790 nM |  |  |  |  | 
CC(C)N(CCCN1CCC(C(=O)c2ccc(F)cc2)CC1)C(=O)c1noc2ccccc12 | 124 nM | 290 nM | 20.2 mg/kg | 2300 nM |  |  |  |  | 
CN1CCN(C2=Nc3cc(Cl)ccc3Nc3ccccc32)CC1 [CLOZAPINE] |  |  |  |  |  | 33% |  |  | 
Cc1nc2n(c(=O)c1CCN1CCC(c3noc4cc(F)ccc34)CC1)CCCC2 [RISPERIDONE] |  |  | 0.062 mg/kg |  | 3.2 mg/kg |  |  |  | 
